Assay results published in ChEMBL document CHEMBL1201862, “PubChem BioAssay data set” (2004).
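96-well plates; 48 h exposure; 5 concentrations. Endpoints by linear interpolation between flanking doses. Not reached: highest tested concentration assigned. Here, GI50 denotes the concentration required for 50% inhibition of growth.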 Calls of active or inactive are those of the source. Rule as the data show it: active = GI50 up to about 1.1 µM and inactive = higher.

Legend:
Assay in all cases: NCI anticancer screen, dose series, 48 h
[1] = test system: NCI-H23
[2] = test system: SNB-19
[3] = test system: MDA-MB-231
[4] = test system: UACC-62
[5] = test system: SK-OV-3
[6] = test system: OVCAR-4
[7] = test system: 786-0
[8] = test system: LOX IMVI
[9] = test system: UO-31
[10] = test system: TK-10
[11] = test system: SN12C
[12] = test system: DU-145
[13] = test system: OVCAR-3
[14] = test system: COLO 205
[15] = test system: A549
[16] = test system: T47D
[17] = test system: BT-549
[18] = test system: KM12
[19] = test system: SK-MEL-28
[20] = test system: MDA-N
[21] = test system: SW-620
[22] = test system: K562
[23] = test system: CAKI-1
[24] = test system: SR
[25] = test system: SF-539
[26] = test system: HL-60
[27] = test system: PC-3
[28] = test system: NCI-H226
[29] = test system: SK-MEL-2
[30] = test system: EKVX
[31] = test system: U-251
[32] = test system: MOLT-4
[33] = test system: HOP-62
[34] = test system: RXF 393
[35] = test system: OVCAR-5
[36] = test system: HCT-15
[37] = test system: HT-29
[38] = test system: MCF7
[39] = test system: ACHN
[40] = test system: NCI/ADR-RES
[41] = test system: HOP-92
[42] = test system: UACC-257
[43] = test system: A498
[44] = test system: SK-MEL-5
[45] = test system: SF-295
[46] = test system: RPMI-8226
[47] = test system: HCT-116
[48] = test system: NCI-H460
[49] = test system: IGROV-1
[50] = test system: M14
[51] = test system: OVCAR-8
[52] = test system: NCI-H522
[53] = test system: Hs-578T
[54] = test system: Malme-3M
[55] = test system: CCRF-CEM
[56] = test system: SF-268
[57] = test system: MDA-MB-435
[58] = test system: SNB-75
[59] = test system: HCC 2998

NN/C(=N\c1ccc(Cl)cc1)NS(=O)(=O)c1ccc(S(=O)(=O)c2ccccc2)s1
GI50 [1]: 20.4 µM (inactive)
GI50 [2]: 38.3 µM (inactive)
GI50 [3]: 33.3 µM (inactive)
GI50 [4]: 7.21 µM (inactive)
GI50 [5]: 71.9 µM (inactive)
GI50 [6]: 21.1 µM (inactive)
GI50 [7]: 21.4 µM (inactive)
GI50 [8]: 15.3 µM (inactive)
GI50 [9]: 23.7 µM (inactive)
GI50 [10]: 26.7 µM (inactive)
GI50 [11]: 22.6 µM (inactive)
GI50 [12]: 21.8 µM (inactive)
GI50 [13]: 20.6 µM (inactive)
GI50 [14]: 17 µM (inactive)
GI50 [15]: 20.1 µM (inactive)
GI50 [16]: 8.17 µM (inactive)
GI50 [17]: 26.4 µM (inactive)
GI50 [18]: 9.79 µM (inactive)
GI50 [19]: 46.7 µM (inactive)
GI50 [20]: 13.7 µM (inactive)
GI50 [21]: 38.6 µM (inactive)
GI50 [22]: 10.9 µM (inactive)
GI50 [23]: 27.7 µM (inactive)
GI50 [24]: 16 µM (inactive)
GI50 [25]: 39.4 µM (inactive)
GI50 [26]: 24.2 µM (inactive)
GI50 [27]: 25.5 µM (inactive)
GI50 [28]: 40.6 µM (inactive)
GI50 [29]: 19.1 µM (inactive)
GI50 [30]: 11 µM (inactive)
GI50 [31]: 29 µM (inactive)
GI50 [32]: 9.16 µM (inactive)
GI50 [33]: 41.2 µM (inactive)
GI50 [34]: 15.5 µM (inactive)
GI50 [35]: 37.6 µM (inactive)
GI50 [36]: 22 µM
GI50 [37]: 18.6 µM (inactive)
GI50 [38]: 22.2 µM (inactive)
GI50 [39]: 16.8 µM (inactive)
GI50 [40]: 18.5 µM (inactive)
GI50 [41]: 18.6 µM (inactive)
GI50 [42]: 18 µM (inactive)
GI50 [43]: 49.1 µM (inactive)
GI50 [44]: 19.2 µM (inactive)
GI50 [45]: 8.79 µM (inactive)
GI50 [46]: 21.2 µM (inactive)
GI50 [47]: 14.8 µM (inactive)
GI50 [48]: 17.2 µM (inactive)
GI50 [49]: 19 µM (inactive)
GI50 [50]: 15.8 µM (inactive)
GI50 [51]: 30.3 µM (inactive)

COC(=O)c1ccc(NCc2cc(OC)ccc2OC)cc1
GI50 [1]: 65 µM (inactive)
GI50 [52]: 38.4 µM (inactive)
GI50 [2]: > 100 µM (inactive)
GI50 [3]: 46.7 µM (inactive)
GI50 [4]: 44.8 µM (inactive)
GI50 [5]: 57 µM (inactive)
GI50 [53]: 92 µM (inactive)
GI50 [6]: > 100 µM (inactive)
GI50 [7]: > 100 µM (inactive)
GI50 [8]: 24.3 µM (inactive)
GI50 [9]: 45.6 µM (inactive)
GI50 [10]: 24 µM (inactive)
GI50 [12]: > 100 µM (inactive)
GI50 [13]: 59.2 µM (inactive)
GI50 [14]: 35.6 µM (inactive)
GI50 [15]: 38.7 µM (inactive)
GI50 [54]: 36.1 µM (inactive)
GI50 [17]: 53.8 µM (inactive)
GI50 [18]: 31.1 µM (inactive)
GI50 [19]: 39.1 µM (inactive)
GI50 [20]: 20.8 µM (inactive)
GI50 [21]: 58.2 µM (inactive)
GI50 [22]: 35.6 µM (inactive)
GI50 [23]: 33.7 µM (inactive)
GI50 [24]: 38 µM (inactive)
GI50 [55]: 42.1 µM (inactive)
GI50 [56]: > 100 µM (inactive)
GI50 [57]: 21.8 µM (inactive)
GI50 [25]: 68.5 µM (inactive)
GI50 [26]: 26.3 µM (inactive)
GI50 [27]: 39 µM (inactive)
GI50 [28]: 69.8 µM (inactive)
GI50 [29]: 54.6 µM (inactive)
GI50 [58]: 34.2 µM (inactive)
GI50 [30]: 80 µM (inactive)
GI50 [31]: 74.3 µM (inactive)
GI50 [32]: 33.3 µM (inactive)
GI50 [35]: > 100 µM (inactive)
GI50 [36]: 30.6 µM
GI50 [37]: 28.8 µM (inactive)
GI50 [38]: 26.7 µM (inactive)
GI50 [39]: 34.5 µM (inactive)
GI50 [40]: 30.3 µM (inactive)
GI50 [41]: 42.7 µM (inactive)
GI50 [42]: 52.1 µM (inactive)
GI50 [43]: 26.2 µM (inactive)
GI50 [59]: 67.6 µM (inactive)
GI50 [44]: 31.2 µM (inactive)
GI50 [46]: 65.8 µM (inactive)
GI50 [47]: 45 µM (inactive)
GI50 [49]: > 100 µM (inactive)
GI50 [50]: 40.6 µM (inactive)
GI50 [51]: > 100 µM (inactive)
